Experimental data taken from PubChem BioAssay (NCI).
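Results reflect a 48-hour exposure of cells in 96-well plates to compound at five concentrations. GI50 = concentration required for 50% inhibition of growth. TGI is the concentration that stops growth completely.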

What was measured:
Assay in all cases: NCI anticancer screen, dose series, 48 h
NCI-H522 lung = system: NCI-H522 lung
SF-268 CNS = system: SF-268 CNS
CCRF-CEM leukemia = system: CCRF-CEM leukemia
ACHN renal = system: ACHN renal
A549 NSCLC = system: A549 NSCLC
SK-MEL-28 melanoma = system: SK-MEL-28 melanoma
M14 melanoma = system: M14 melanoma
HL-60(TB) leukemia = system: HL-60(TB) leukemia
UACC-257 melanoma = system: UACC-257 melanoma
CAKI-1 renal = system: CAKI-1 renal

## Cn1ncc(=S)[nH]c1=S
NCI-H522 lung
  TGI: > 100 µM
SF-268 CNS
  TGI: > 100 µM
CCRF-CEM leukemia
  TGI: > 100 µM
ACHN renal
  TGI: > 100 µM
A549 NSCLC
  TGI: > 100 µM
SK-MEL-28 melanoma
  TGI: > 100 µM
M14 melanoma
  TGI: > 100 µM

## O=C1NC(=O)C(C(=O)C(=O)Nc2ccc(Br)cc2)C(=O)N1
HL-60(TB) leukemia
  TGI: > 100 µM
NCI-H522 lung
  TGI: > 100 µM
SF-268 CNS
  TGI: > 100 µM
CCRF-CEM leukemia
  TGI: > 100 µM
ACHN renal
  TGI: > 100 µM
UACC-257 melanoma
  TGI: > 100 µM
A549 NSCLC
  TGI: > 100 µM
SK-MEL-28 melanoma
  TGI: > 100 µM
M14 melanoma
  TGI: > 100 µM

## CC(C(=O)N1C(=O)N(C(=O)C(C)C(O)c2ccccc2)C(c2ccccc2)C1c1ccccc1)C(O)c1ccccc1 (configuration not stated)
HL-60(TB) leukemia
  TGI: 6.79 µM
NCI-H522 lung
  TGI: 48.4 µM
SF-268 CNS
  TGI: > 100 µM
CCRF-CEM leukemia
  TGI: 32.2 µM
ACHN renal
  TGI: > 100 µM
A549 NSCLC
  TGI: > 100 µM
SK-MEL-28 melanoma
  TGI: 40.2 µM
M14 melanoma
  TGI: 33.4 µM

## Oc1cccc2c1NC1=C(CCC/C1=C\c1ccccc1)C2
HL-60(TB) leukemia
  TGI: > 100 µM
NCI-H522 lung
  TGI: 83.5 µM
SF-268 CNS
  TGI: > 100 µM
CCRF-CEM leukemia
  TGI: > 100 µM
ACHN renal
  TGI: > 100 µM
UACC-257 melanoma
  TGI: > 100 µM
A549 NSCLC
  TGI: > 100 µM
SK-MEL-28 melanoma
  TGI: > 100 µM
M14 melanoma
  TGI: > 100 µM

## Oc1ccc(C(c2ccccc2)(c2ccccc2)c2ccccc2)cc1
NCI-H522 lung
  GI50: 13.7 µM
  TGI: 27.2 µM
SF-268 CNS
  GI50: 21.5 µM
  TGI: 69.4 µM
CCRF-CEM leukemia
  GI50: 21.1 µM
  TGI: 39.5 µM
ACHN renal
  GI50: 21.9 µM
  TGI: 41.4 µM
UACC-257 melanoma
  GI50: 15.5 µM
  TGI: 31.3 µM
CAKI-1 renal
  GI50: 14 µM
  TGI: 29.6 µM
A549 NSCLC
  GI50: 12.8 µM
  TGI: 29 µM
M14 melanoma
  GI50: 15.6 µM
  TGI: 30.3 µM

## CCCCCCCCCCCCCS(=O)(=O)O
HL-60(TB) leukemia
  TGI: > 100 µM
NCI-H522 lung
  TGI: > 100 µM
SF-268 CNS
  TGI: > 100 µM
CCRF-CEM leukemia
  TGI: > 100 µM
ACHN renal
  TGI: > 100 µM
UACC-257 melanoma
  TGI: > 100 µM
A549 NSCLC
  TGI: > 100 µM
SK-MEL-28 melanoma
  TGI: > 100 µM
M14 melanoma
  TGI: > 100 µM

## CCCc1c2c([nH]c(=O)c1C)C(=O)c1[nH]c(=O)c(C)c(CCC)c1C2=O
HL-60(TB) leukemia
  TGI: 24.8 µM
SF-268 CNS
  TGI: 87.4 µM
CCRF-CEM leukemia
  TGI: 73.2 µM
ACHN renal
  TGI: 47.6 µM
UACC-257 melanoma
  TGI: 6.99 µM
A549 NSCLC
  TGI: 72.7 µM
SK-MEL-28 melanoma
  TGI: > 100 µM
M14 melanoma
  TGI: 17.3 µM

## Cn1ccnc1C(=O)/C=C/c1ccc(CC(=O)Nc2ccc(Cl)cc2)cc1
HL-60(TB) leukemia
  GI50: 4.81 µM
  TGI: > 25 µM
NCI-H522 lung
  GI50: 4.85 µM
  TGI: > 25 µM
SF-268 CNS
  GI50: 1.24 µM
  TGI: > 25 µM
CCRF-CEM leukemia
  GI50: 1.46 µM
  TGI: > 25 µM
ACHN renal
  GI50: 15 µM
  TGI: > 25 µM
UACC-257 melanoma
  GI50: > 25 µM
  TGI: > 25 µM
CAKI-1 renal
  GI50: 13.5 µM
  TGI: > 25 µM
A549 NSCLC
  GI50: 11.5 µM
  TGI: > 25 µM
SK-MEL-28 melanoma
  GI50: > 25 µM
  TGI: > 25 µM

## Cc1ccc(NC(=O)c2[nH]c(=S)nc(N)c2-c2ccccc2C)cc1C
NCI-H522 lung
  TGI: > 100 µM
SF-268 CNS
  TGI: > 100 µM
CCRF-CEM leukemia
  TGI: > 100 µM
ACHN renal
  TGI: > 100 µM
UACC-257 melanoma
  TGI: > 100 µM
CAKI-1 renal
  TGI: > 100 µM
A549 NSCLC
  TGI: > 100 µM
SK-MEL-28 melanoma
  TGI: > 100 µM
M14 melanoma
  TGI: > 100 µM

## O=C(Nc1ccc(Cl)c(C(F)(F)F)c1)C(=O)C(C(=O)/C=C/c1ccccc1)C1OC(=O)c2ccccc21 (configuration not stated)
HL-60(TB) leukemia
  TGI: > 100 µM
NCI-H522 lung
  TGI: > 100 µM
SF-268 CNS
  TGI: > 100 µM
CCRF-CEM leukemia
  TGI: > 100 µM
ACHN renal
  TGI: > 100 µM
UACC-257 melanoma
  TGI: > 100 µM
CAKI-1 renal
  TGI: > 100 µM
A549 NSCLC
  TGI: > 100 µM
M14 melanoma
  TGI: > 100 µM
